Results: PubChem BioAssay AID330 (DTP/NCI, 2004)
Where “and” joins values, the source holds several entries; their conditions need not be identical. Identical values can stand only once. Inconclusive results and toxic doses are left out.

System: P388 leukemia ip, CD2F1 mice, survival T/C
Test: NCI In Vivo Anticancer Drug Screen. Data for tumor model P388 Leukemia (intraperitoneal) in CD2F1 (CDF1) mice
Conditions: endpoint: median survival time, higher = longer survival
Outline: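 Mice carrying the transplanted tumor received test compound or vehicle. Survival was recorded in each group, and the value is the treated-group measurement divided by that of the vehicle-treated control group.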

[1] = dose: 60.0 mg/kg/injection, schedule: Q01DX005 (ip), vehicle: Klucel (hydroxypropylcellulose) (HPC)
[2] = dose: 120.0 mg/kg/injection, schedule: Q01DX005 (ip), vehicle: Klucel (hydroxypropylcellulose) (HPC)
[3] = dose: 240.0 mg/kg/injection, schedule: Q01DX005 (ip), vehicle: Klucel (hydroxypropylcellulose) (HPC)
[4] = dose: 60.0 mg/kg/injection, schedule: Q01DX005 (ip), vehicle: saline with Tween-80
[5] = dose: 120.0 mg/kg/injection, schedule: Q01DX005 (ip), vehicle: saline with Tween-80
[6] = dose: 240.0 mg/kg/injection, schedule: Q01DX005 (ip), vehicle: saline with Tween-80
[7] = dose: 200.0 mg/kg/injection, schedule: Q01DX009 (ip), vehicle: saline
[8] = dose: 100.0 mg/kg/injection, schedule: Q04DX003 (ip), vehicle: saline
[9] = dose: 12.5 mg/kg/injection, schedule: Q01DX005 (ip), vehicle: saline with Tween-80
[10] = dose: 50.0 mg/kg/injection, schedule: Q01DX005 (ip), vehicle: saline with Tween-80
[11] = dose: 200.0 mg/kg/injection, schedule: Q01DX005 (ip), vehicle: saline with Tween-80

For `O=C(CN(O)C(=O)c1ccccc1)OCc1ccccc1`, the T/C (dose: 12.5 mg/kg/injection, schedule: Q01DX009 (ip), vehicle: distilled water + Tween-80) was 97 % of control, the T/C (dose: 25.0 mg/kg/injection, schedule: Q01DX009 (ip), vehicle: distilled water + Tween-80) was 99 % of control and the T/C (dose: 50.0 mg/kg/injection, schedule: Q01DX009 (ip), vehicle: distilled water + Tween-80) was 99 % of control. For the same molecule, the T/C (dose: 100.0 mg/kg/injection, schedule: Q01DX009 (ip), vehicle: distilled water + Tween-80) was 101 % of control and the T/C (dose: 200.0 mg/kg/injection, schedule: Q01DX009 (ip), vehicle: distilled water + Tween-80) was 101 % of control.

With `Cc1cc2c(cc1C)NC1=C(N2)OC(c2c3ccccc3cc3ccccc23)C1=O` (stereo not drawn) the T/C [1] was 92 % of control, the T/C [2] was 88 % of control and the T/C [3] was 90 % of control.

In the case of `CC1=CC(=O)C(O)C2(C)C1CC1OC(=O)CC3C(C)C(O)C4(O)OCC13C42` (stereo not drawn), the T/C (dose: 5.0 mg/kg/injection, schedule: Q01DX009 (ip), vehicle: Klucel (hydroxypropylcellulose) (HPC)) is reported as 107 % of control, the T/C (dose: 10.0 mg/kg/injection, schedule: Q01DX009 (ip), vehicle: Klucel (hydroxypropylcellulose) (HPC)) is reported as 117 % of control and the T/C (dose: 20.0 mg/kg/injection, schedule: Q01DX009 (ip), vehicle: Klucel (hydroxypropylcellulose) (HPC)) is reported as 123 % of control.

`COc1ccc(Cl)cc1Cn1ccnc1` was tested, and the T/C [4] was 97 % of control and the T/C [5] was 103 % of control.

For `N#CNc1c2ccccc2nc2ccccc12`, the T/C (dose: 15.0 mg/kg/injection, schedule: Q01DX005 (ip), vehicle: saline with Tween-80) was 101 % of control, the T/C (dose: 30.0 mg/kg/injection, schedule: Q01DX005 (ip), vehicle: saline with Tween-80) was 97 % of control and the T/C [4] was 99 % of control and 100 % of control.

`O=C1OC2(CCCC2)OC(=O)C1=C/C=C/c1ccc([N+](=O)[O-])o1` was tested, and the T/C (dose: 50.0 mg/kg/injection, schedule: Q04DX003 (ip), vehicle: saline with Tween-80) was 99 % of control, the T/C (dose: 100.0 mg/kg/injection, schedule: Q04DX003 (ip), vehicle: saline with Tween-80) was 100 % of control and 114 % of control and 96 % of control and the T/C (dose: 200.0 mg/kg/injection, schedule: Q04DX003 (ip), vehicle: saline with Tween-80) was 102 % of control and 112 % of control and 96 % of control. For the same molecule, the T/C (dose: 400.0 mg/kg/injection, schedule: Q04DX003 (ip), vehicle: saline with Tween-80) was 103 % of control and 121 % of control and 86 % of control and the T/C (dose: 800.0 mg/kg/injection, schedule: Q04DX003 (ip), vehicle: saline with Tween-80) was 115 % of control.

With `CN(C)CN1C(=O)S/C(=C2\C(=O)N(CN(C)C)c3ccccc32)C1=O` the T/C (dose: 30.0 mg/kg/injection, schedule: Q01DX005 (ip), vehicle: Klucel (hydroxypropylcellulose) (HPC)) was 118 % of control, the T/C [1] was 120 % of control and 121 % of control and the T/C [2] was 113 % of control. The T/C [3] was 120 % of control.

In the case of `c1ccc2c(SCCNCCSc3c4ccccc4nc4ccccc34)c3ccccc3nc2c1`, the T/C [1] is reported as 106 % of control, the T/C [2] is reported as 105 % of control and the T/C [3] is reported as 106 % of control.

In the case of `CC(=Nc1c(Cl)c(Cl)c2c(c1Cl)C(=O)c1cc(Cl)ccc1-2)NO`, the T/C [4] is reported as 97 % of control, the T/C [5] is reported as 104 % of control and the T/C [6] is reported as 95 % of control.

For `CC(=O)NCCCC(=O)O`, the T/C [7] was 98 % of control.

`CCOC(=O)CC(=O)c1cccnc1` was tested, and the T/C (dose: 50.0 mg/kg/injection, schedule: Q04DX003 (ip), vehicle: suspension in saline) was 113 % of control, the T/C (dose: 100.0 mg/kg/injection, schedule: Q04DX003 (ip), vehicle: suspension in saline) was 104 % of control and the T/C (dose: 200.0 mg/kg/injection, schedule: Q04DX003 (ip), vehicle: suspension in saline) was 114 % of control. For the same molecule, the T/C (dose: 400.0 mg/kg/injection, schedule: Q04DX003 (ip), vehicle: suspension in saline) was 113 % of control.

In the case of `CN(C)c1ccc(C2CC(C)(O)Oc3cc4c(cc32)OCO4)cc1` (stereo not drawn), the T/C [1] is reported as 102 % of control, the T/C [2] is reported as 110 % of control and the T/C [3] is reported as 108 % of control.

In the case of `CC1(C)N=C(N)N=C(N)N1c1cccc(CCCCc2ccccc2)c1`, the T/C (dose: 0.75 mg/kg/injection, schedule: Q01DX009 (ip), vehicle: saline sonified) is reported as 109 % of control, the T/C (dose: 1.5 mg/kg/injection, schedule: Q01DX009 (ip), vehicle: saline sonified) is reported as 113 % of control and the T/C (dose: 3.0 mg/kg/injection, schedule: Q01DX009 (ip), vehicle: saline sonified) is reported as 118 % of control. For the same molecule, the T/C (dose: 50.0 mg/kg/injection, schedule: Q04DX003 (ip), vehicle: saline sonified) was 86 % of control.

`CN(C)CC(Cl)CCl` (stereo not drawn) was tested, and the T/C (dose: 50.0 mg/kg/injection, schedule: Q04DX003 (ip), vehicle: saline) was 109 % of control, the T/C [8] was 109 % of control and the T/C [7] was 195 % of control.

`[NH-]CC[NH-].[NH-]CC[NH-].[NH-]CC[NH-].[Ni]` was tested, and the T/C (dose: 6.25 mg/kg/injection, schedule: Q01DX009 (ip), vehicle: saline) was 90 % of control and the T/C (dose: 12.5 mg/kg/injection, schedule: Q01DX009 (ip), vehicle: saline) was 90 % of control.

For `C/C(=N\NC(=S)N1CCSCC1)c1ccccn1`, the T/C (dose: 6.25 mg/kg/injection, schedule: Q01DX005 (ip), vehicle: saline with Tween-80) was 113 % of control and the T/C [9] was 91 % of control.

`C[C@]12CCC[C@H](O)[C@H]1O2` was tested, and the T/C [8] was 104 % of control, the T/C (dose: 200.0 mg/kg/injection, schedule: Q04DX003 (ip), vehicle: saline) was 102 % of control and the T/C (dose: 400.0 mg/kg/injection, schedule: Q04DX003 (ip), vehicle: saline) was 102 % of control.

`CCOC(=Nc1ccc(F)cc1)SC(c1ccccc1)(c1ccccc1)c1ccccc1` was tested, and the T/C [10] was 110 % of control, the T/C (dose: 100.0 mg/kg/injection, schedule: Q01DX005 (ip), vehicle: saline with Tween-80) was 104 % of control and the T/C [11] was 99 % of control.

For `CC(C)CCC1(CCBr)C(=O)NC(=Nc2ccccc2)NC1=O` (stereo not drawn), the T/C (dose: 25.0 mg/kg/injection, schedule: Q01DX009 (ip), vehicle: saline with Tween-80) was 96 % of control, the T/C (dose: 50.0 mg/kg/injection, schedule: Q01DX009 (ip), vehicle: saline with Tween-80) was 98 % of control and the T/C (dose: 100.0 mg/kg/injection, schedule: Q01DX009 (ip), vehicle: saline with Tween-80) was 100 % of control. For the same molecule, the T/C (dose: 200.0 mg/kg/injection, schedule: Q01DX009 (ip), vehicle: saline with Tween-80) was 100 % of control.

With `CC(CN(C)C)C(=O)/C=C/c1ccc(F)c(F)c1` (stereo not drawn) the T/C (dose: 60.0 mg/kg/injection, schedule: Q01DX005 (ip), vehicle: saline) was 100 % of control and 103 % of control and the T/C (dose: 120.0 mg/kg/injection, schedule: Q01DX005 (ip), vehicle: saline) was 116 % of control and 124 % of control.

In the case of `COc1ccc(OC)c(C(O)P(=O)(c2ccccc2)c2ccccc2)c1` (stereo not drawn), the T/C (dose: 50.0 mg/kg/injection, schedule: Q01DX009 (ip), vehicle: Klucel (hydroxypropylcellulose) (HPC)) is reported as 98 % of control, the T/C (dose: 100.0 mg/kg/injection, schedule: Q01DX009 (ip), vehicle: Klucel (hydroxypropylcellulose) (HPC)) is reported as 93 % of control and the T/C (dose: 200.0 mg/kg/injection, schedule: Q01DX009 (ip), vehicle: Klucel (hydroxypropylcellulose) (HPC)) is reported as 93 % of control.

In the case of `c1ccc(CN2COCO[C@H]3CCC[C@@H]32)cc1`, the T/C (dose: 50.0 mg/kg/injection, schedule: Q01DX005 (ip), vehicle: Klucel (hydroxypropylcellulose) (HPC)) is reported as 107 % of control and the T/C (dose: 100.0 mg/kg/injection, schedule: Q01DX005 (ip), vehicle: Klucel (hydroxypropylcellulose) (HPC)) is reported as 104 % of control.

`O=C1CC2CC3C1C2n1c(=O)n(-c2ccccc2)c(=O)n13` (stereo not drawn) was tested, and the T/C (dose: 100.0 mg/kg/injection, schedule: Q01DX001 (ip), vehicle: Klucel (hydroxypropylcellulose) (HPC)) was 107 % of control, the T/C (dose: 200.0 mg/kg/injection, schedule: Q01DX001 (ip), vehicle: Klucel (hydroxypropylcellulose) (HPC)) was 101 % of control and the T/C (dose: 400.0 mg/kg/injection, schedule: Q01DX001 (ip), vehicle: Klucel (hydroxypropylcellulose) (HPC)) was 96 % of control.

In the case of `CN(C)C1c2cc3ccccc3nc2-c2ccccc2C1(C)C` (stereo not drawn), the T/C [9] is reported as 95 % of control, the T/C (dose: 25.0 mg/kg/injection, schedule: Q01DX005 (ip), vehicle: saline with Tween-80) is reported as 95 % of control and the T/C [10] is reported as 100 % of control and 101 % of control. The T/C [11] was 97 % of control.

`Cc1n[nH]c(=O)c(N)c1-c1cc(-c2ccccc2)n[nH]1` was tested, and the T/C [4] was 91 % of control, the T/C [5] was 94 % of control and the T/C [6] was 93 % of control.

With `COc1ccc(CN2CCc3c(cccc3[N+](=O)[O-])C2)cc1` the T/C (dose: 100.0 mg/kg/injection, schedule: Q04DX003 (ip), vehicle: Klucel (hydroxypropylcellulose) (HPC)) was 98 % of control, the T/C (dose: 200.0 mg/kg/injection, schedule: Q04DX003 (ip), vehicle: Klucel (hydroxypropylcellulose) (HPC)) was 103 % of control and the T/C (dose: 400.0 mg/kg/injection, schedule: Q04DX003 (ip), vehicle: Klucel (hydroxypropylcellulose) (HPC)) was 96 % of control.

For `CCOC(=O)CN1CN(CCCN(C)C)CC(C)(C)C1OCC` (stereo not drawn), the T/C (dose: 15.0 mg/kg/injection, schedule: Q01DX009 (ip), vehicle: saline with Tween-80) was 108 % of control, the T/C (dose: 30.0 mg/kg/injection, schedule: Q01DX009 (ip), vehicle: saline with Tween-80) was 98 % of control and the T/C (dose: 60.0 mg/kg/injection, schedule: Q01DX009 (ip), vehicle: saline with Tween-80) was 99 % of control.
